From US20240108006A1, “PESTICIDALLY ACTIVE HETEROAROMATIC COMPOUNDS” (SYNGENTA CROP PROTECTION AG, priority 2021, published 2024)

Columns and labels:
Chilo suppressalis = assay: Example B1: Chilo suppressalis (striped rice stemborer), artificial diet, L2 larvae; format: in vivo; conditions: 144 h, application rate of 200 ppm, 6 days after infestation, read-out: control in at least one of the three categories (mortality, anti-feedant effect, or growth inhibition)
Description: Example B1: Chilo suppressalis (Striped Rice Stemborer)
24-well microtiter plates with artificial diet were treated with aqueous test solutions prepared from 10,000 ppm DMSO stock solutions by pipetting. After drying, the plates were infested with L2 larvae (6-8 per well). The samples were assessed for mortality, anti-feeding effect, and growth inhibition in comparison to untreated samples 6 days after infestation. Control of Chilo suppressalis by a test sample is given when at least one of the categories mortality, anti-feedant effect, and growth inhibition is higher than the untreated sample.

Plutella xylostella = assay: Example B8: Plutella xylostella (diamond back moth), artificial diet 24-well, eggs; format: in vivo; conditions: 192 h, application rate of 200 ppm, 8 days after infestation, read-out: effect in at least one of the two categories (mortality or growth inhibition)
Description: Example B8: Plutella xylostella (Diamond Back Moth)
24-well microtiter plates with artificial diet were treated with aqueous test solutions prepared from 10,000 ppm DMSO stock solutions by pipetting. After drying, Plutella eggs were pipetted through a plastic stencil onto a gel blotting paper and the plate was closed with it. The samples were assessed for mortality and growth inhibition in comparison to untreated samples 8 days after infestation.
The following compounds gave an effect of at least 80% in at least one of the two categories (mortality or growth inhibition) at an application rate of 200 ppm: […]

| Structure (SMILES) | percent control (mortality, anti-feedant effect or growth inhibition) at 200 ppm (Chilo suppressalis) [%] | percent effect (mortality or growth inhibition) at 200 ppm (Plutella xylostella) [%] |
| --- | --- | --- |
| C[C@@H](c1ncnn1-c1ncccn1)N(C)C(=O)N(C)c1cnc(C(F)(F)F)cc1Cl [Example P270, 1-[4-chloro-6-(trifluoromethyl)-3-pyridyl]-1,3-dimethyl-3-[(1S)-1-(2-pyrimidin-2-yl-1,2,4-triazol-3-yl)ethyl]urea] | ≥ 80 | ≥ 80 |
| COc1cc(NC(=O)N[C@@H](C)c2ncnn2-c2ncccn2)c(F)cc1Br [Example P220, 1-(4-bromo-2-fluoro-5-methoxy-phenyl)-3-[(1S)-1-(2-pyrimidin-2-yl-1,2,4-triazol-3-yl)ethyl]urea] | ≥ 80 | ≥ 80 |
| C[C@H](NC(=O)Nc1cc(C(F)(F)F)c(Cl)cc1Cl)c1ncnn1-c1ncc(C(=O)N(C)C)s1 [Example P170, 2-[5-[(1S)-1-[[2,4-dichloro-5-(trifluoromethyl)phenyl]carbamoyl-amino]ethyl]-1,2,4-triazol-1-yl]-N, N-dimethyl-thiazole-5-carboxamide] | ≥ 80 | ≥ 80 |
| Cc1cc(Br)c(Cl)cc1NC(=O)N[C@@H](C)c1ncnn1-c1ncccn1 [Example P299, 1-(4-bromo-5-chloro-2-methyl-phenyl)-3-[(1S)-1-(2-pyrimidin-2-yl-1,2,4-triazol-3-yl)ethyl]urea] | ≥ 80 | ≥ 80 |
| CC(C)OC(=O)c1cc(NC(=O)N[C@@H](C)c2ncnn2-c2ncccn2)c(F)cc1Cl [Example P217, isopropyl 2-chloro-4-fluoro-5-[[(1S)-1-(2-pyrimidin-2-yl-1,2,4-triazol-3-yl)ethyl]carbamoylamino]benzoate] | ≥ 80 | ≥ 80 |
| C[C@H](NC(=O)Nc1ccc(C(F)(F)F)c(Cl)c1)c1nccnc1-c1ncccn1 [Example P10, 1-[3-chloro-4-(trifluoromethyl)phenyl]-3-[(1S)-1-(3-pyrimidin-2-ylpyrazin-2-yl)ethyl]urea] | ≥ 80 | ≥ 80 |
| COc1cc(NC(=O)N[C@@H](C)c2ncnn2-c2ncccn2)c(I)cc1Cl [Example P288, 1-(4-chloro-2-iodo-5-methoxy-phenyl)-3-[(1S)-1-(2-pyrimidin-2-yl-1,2,4-triazol-3-yl)ethyl]urea] |  | ≥ 80 |
| C[C@H](NC(=O)Nc1ccc(C(F)(F)F)c(Cl)c1)c1ncnn1-c1ncccn1 [Example P128, 1-[3-chloro-4-(trifluoromethyl)phenyl]-3-[(1S)-1-(2-pyrimidin-2-yl-1,2,4-triazol-3-yl)ethyl]urea] | ≥ 80 | ≥ 80 |
| Cc1cc(Cl)c(Br)cc1NC(=O)N[C@@H](C)c1ncnn1-c1ncccn1 [Example P305, 1-(5-bromo-4-chloro-2-methyl-phenyl)-3-[(1S)-1-(2-pyrimidin-2-yl-1,2,4-triazol-3-yl)ethyl]urea] |  | ≥ 80 |
| C[C@H](NC(=O)Nc1cc(C(F)(F)F)c(Cl)cc1Cl)c1ncnn1-c1ccc(C(=O)N2CCOCC2)cn1 [Example P175, 1-[2,4-dichloro-5-(trifluoromethyl)phenyl]-3-[(1S)-1-[2-[5-(morpholine-4-carbonyl)-2-pyridyl]-1,2,4-triazol-3-yl]ethyl]urea] |  | ≥ 80 |
| C[C@H](NC(=O)Nc1cc(OCC#N)c(Cl)cc1Cl)c1ncnn1-c1ncccn1 [Example P161, 1-[2,4-dichloro-5-(cyanomethoxy)phenyl]-3-[(1S)-1-(2-pyrimidin-2-yl-1,2,4-triazol-3-yl)ethyl]urea] |  | ≥ 80 |
